Test results from PubChem BioAssay AID2060896 (Molecular Pharmacology Branch, DTP, NCI, 2025).
pIC50: −log10 of the molar value.

System: 941728-121-R-J1-PDC complex spheroid viability
Assay: Anticancer human tumor 941728-121-R-J1-PDC patient-derived lung adenocarcinoma cell line growth inhibition [RAS]
Conditions: for pIC50: curve of first compound; for viability, T/C: stronger effect = lower value
Method in brief: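 Multi-cell-type spheroids: tumor cells plus HUVEC endothelial cells and mesenchymal stem cells. RAS-pathway inhibitors were combined with targeted agents, each dosed in half-log steps down from clinical Cmax, or from 10 microM when Cmax was unknown.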

[1] = second compound 0.000949 µM, first compound 0.000949 µM
[2] = second compound 0.000949 µM, first compound 0.003 µM
[3] = second compound 0.000949 µM, first compound 0.00949 µM
[4] = second compound 0.000949 µM, first compound 0.03 µM
[5] = second compound 0.000949 µM, first compound 0.0949 µM
[6] = second compound 0.000949 µM, first compound 0.3 µM
[7] = second compound 0.003 µM, first compound 0.000949 µM
[8] = second compound 0.003 µM, first compound 0.003 µM
[9] = second compound 0.003 µM, first compound 0.00949 µM
[10] = second compound 0.003 µM, first compound 0.03 µM
[11] = second compound 0.003 µM, first compound 0.0949 µM
[12] = second compound 0.003 µM, first compound 0.3 µM
[13] = second compound 0.00949 µM, first compound 0.000949 µM
[14] = second compound 0.00949 µM, first compound 0.003 µM
[15] = second compound 0.00949 µM, first compound 0.00949 µM
[16] = second compound 0.00949 µM, first compound 0.03 µM
[17] = second compound 0.00949 µM, first compound 0.0949 µM
[18] = second compound 0.00949 µM, first compound 0.3 µM
[19] = second compound 0.03 µM, first compound 0.000949 µM
[20] = second compound 0.03 µM, first compound 0.003 µM
[21] = second compound 0.03 µM, first compound 0.00949 µM
[22] = second compound 0.03 µM, first compound 0.03 µM
[23] = second compound 0.03 µM, first compound 0.0949 µM
[24] = second compound 0.03 µM, first compound 0.3 µM
[25] = second compound 0.0949 µM, first compound 0.000949 µM
[26] = second compound 0.0949 µM, first compound 0.003 µM
[27] = second compound 0.0949 µM, first compound 0.00949 µM
[28] = second compound 0.0949 µM, first compound 0.03 µM
[29] = second compound 0.0949 µM, first compound 0.0949 µM
[30] = second compound 0.0949 µM, first compound 0.3 µM
[31] = second compound 0.3 µM, first compound 0.000949 µM
[32] = second compound 0.3 µM, first compound 0.003 µM
[33] = second compound 0.3 µM, first compound 0.00949 µM
[34] = second compound 0.3 µM, first compound 0.03 µM
[35] = second compound 0.3 µM, first compound 0.0949 µM
[36] = second compound 0.3 µM, first compound 0.3 µM
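Note: spheroids exposed to compounds for 7 days before readout.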
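Throughout, for viability, T/C: 100% = DMSO vehicle control viability.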

C=CC(=O)N1CCN(c2nc(OCC3CCCN3C)nc3c(F)c(-c4nc(N)cc(C)c4C(F)(F)F)c(Cl)cc23)C(C)C1 (stereo unspecified) + CCn1c(-c2cccnc2C(C)OC)c2c3cc(ccc31)N1CCOC(CC(NC(=O)C(C(C)C)N(C)C(=O)C3(F)CCN(C(=O)C#CC(C)(C)N(C)C)CC3)C(=O)N3CCCC(N3)C(=O)OCC(C)(C)C2)C1
pIC50 (second compound 0.000949 µM): > 8.50
pIC50 (second compound 0.003 µM): > 8.50
pIC50 (second compound 0.00949 µM): > 8.50
pIC50 (second compound 0.03 µM): > 8.50
pIC50 (second compound 0.0949 µM): > 8.50
pIC50 (second compound 0.3 µM): > 8.50
viability, T/C (second compound 0.000949 µM, first compound 0.00316 µM): 22.3%
viability, T/C (second compound 0.000949 µM, first compound 0.01 µM): 23.4%
viability, T/C (second compound 0.000949 µM, first compound 0.0316 µM): 20.6%
viability, T/C (second compound 0.000949 µM, first compound 0.1 µM): 22.8%
viability, T/C (second compound 0.000949 µM, first compound 0.316 µM): 22.8%
viability, T/C (second compound 0.000949 µM, first compound 1 µM): 19.9%
viability, T/C (second compound 0.003 µM, first compound 0.00316 µM): 26.6%
viability, T/C (second compound 0.003 µM, first compound 0.01 µM): 22.7%
viability, T/C (second compound 0.003 µM, first compound 0.0316 µM): 21.4%
viability, T/C (second compound 0.003 µM, first compound 0.1 µM): 24.5%
viability, T/C (second compound 0.003 µM, first compound 0.316 µM): 23.2%
viability, T/C (second compound 0.003 µM, first compound 1 µM): 19%
viability, T/C (second compound 0.00949 µM, first compound 0.00316 µM): 24.7%
viability, T/C (second compound 0.00949 µM, first compound 0.01 µM): 21.1%
viability, T/C (second compound 0.00949 µM, first compound 0.0316 µM): 22.7%
viability, T/C (second compound 0.00949 µM, first compound 0.1 µM): 23.4%
viability, T/C (second compound 0.00949 µM, first compound 0.316 µM): 20.6%
viability, T/C (second compound 0.00949 µM, first compound 1 µM): 20.5%
viability, T/C (second compound 0.03 µM, first compound 0.00316 µM): 22.4%
viability, T/C (second compound 0.03 µM, first compound 0.01 µM): 22.5%
viability, T/C (second compound 0.03 µM, first compound 0.0316 µM): 25.3%
viability, T/C (second compound 0.03 µM, first compound 0.1 µM): 24.8%
viability, T/C (second compound 0.03 µM, first compound 0.316 µM): 18.7%
viability, T/C (second compound 0.03 µM, first compound 1 µM): 23.6%
viability, T/C (second compound 0.0949 µM, first compound 0.00316 µM): 22.7%
viability, T/C (second compound 0.0949 µM, first compound 0.01 µM): 23.9%
viability, T/C (second compound 0.0949 µM, first compound 0.0316 µM): 23.4%
viability, T/C (second compound 0.0949 µM, first compound 0.1 µM): 23.4%
viability, T/C (second compound 0.0949 µM, first compound 0.316 µM): 22.6%
viability, T/C (second compound 0.0949 µM, first compound 1 µM): 25.4%
viability, T/C (second compound 0.3 µM, first compound 0.00316 µM): 22.7%
viability, T/C (second compound 0.3 µM, first compound 0.01 µM): 25%
viability, T/C (second compound 0.3 µM, first compound 0.0316 µM): 22.4%
viability, T/C (second compound 0.3 µM, first compound 0.1 µM): 21.4%
viability, T/C (second compound 0.3 µM, first compound 0.316 µM): 21%
viability, T/C (second compound 0.3 µM, first compound 1 µM): 28%

CC1(C)CCC(Nc2ncc(C(F)(F)F)c(-c3c[nH]c4c(P(C)(C)=O)c(C#N)ccc34)n2)CN1 (stereo unspecified) + CCn1c(-c2cccnc2C(C)OC)c2c3cc(ccc31)N1CCOC(CC(NC(=O)C(C(C)C)N(C)C(=O)C3(F)CCN(C(=O)C#CC(C)(C)N(C)C)CC3)C(=O)N3CCCC(N3)C(=O)OCC(C)(C)C2)C1
pIC50 (second compound 0.000949 µM): > 9.02
pIC50 (second compound 0.003 µM): > 9.02
pIC50 (second compound 0.00949 µM): > 9.02
pIC50 (second compound 0.03 µM): > 9.02
pIC50 (second compound 0.0949 µM): > 9.02
pIC50 (second compound 0.3 µM): > 9.02
viability, T/C [1]: 21%
viability, T/C [2]: 20.7%
viability, T/C [3]: 16.3%
viability, T/C [4]: 23.5%
viability, T/C [5]: 24.3%
viability, T/C [6]: 15.7%
viability, T/C [7]: 25.2%
viability, T/C [8]: 19.5%
viability, T/C [9]: 18.2%
viability, T/C [10]: 22.9%
viability, T/C [11]: 22.2%
viability, T/C [12]: 16.6%
viability, T/C [13]: 21.4%
viability, T/C [14]: 20.2%
viability, T/C [15]: 21.2%
viability, T/C [16]: 19.6%
viability, T/C [17]: 21.2%
viability, T/C [18]: 21.9%
viability, T/C [19]: 20.4%
viability, T/C [20]: 17%
viability, T/C [21]: 22.8%
viability, T/C [22]: 21.7%
viability, T/C [23]: 19%
viability, T/C [24]: 21.6%
viability, T/C [25]: 19.5%
viability, T/C [26]: 20.3%
viability, T/C [27]: 21%
viability, T/C [28]: 23.4%
viability, T/C [29]: 19%
viability, T/C [30]: 23.7%
viability, T/C [31]: 20.7%
viability, T/C [32]: 19.9%
viability, T/C [33]: 25.6%
viability, T/C [34]: 20.9%
viability, T/C [35]: 21.4%
viability, T/C [36]: 25.6%

CCc1c2c(nc3ccc(O)cc13)-c1cc3c(c(=O)n1C2)COC(=O)[C@]3(O)CC + CCn1c(-c2cccnc2C(C)OC)c2c3cc(ccc31)N1CCOC(CC(NC(=O)C(C(C)C)N(C)C(=O)C3(F)CCN(C(=O)C#CC(C)(C)N(C)C)CC3)C(=O)N3CCCC(N3)C(=O)OCC(C)(C)C2)C1
pIC50 (second compound 0.000949 µM): > 9.02
pIC50 (second compound 0.003 µM): > 9.02
pIC50 (second compound 0.00949 µM): > 9.02
pIC50 (second compound 0.03 µM): > 9.02
pIC50 (second compound 0.0949 µM): > 9.02
pIC50 (second compound 0.3 µM): > 9.02
viability, T/C [1]: 23.7%
viability, T/C [2]: 18.9%
viability, T/C [3]: 14.2%
viability, T/C [4]: 17.5%
viability, T/C [5]: 11.7%
viability, T/C [6]: 6.82%
viability, T/C [7]: 25.2%
viability, T/C [8]: 21.1%
viability, T/C [9]: 14.8%
viability, T/C [10]: 14.4%
viability, T/C [11]: 12.2%
viability, T/C [12]: 7.12%
viability, T/C [13]: 22.4%
viability, T/C [14]: 16.3%
viability, T/C [15]: 17.1%
viability, T/C [16]: 13.5%
viability, T/C [17]: 11.2%
viability, T/C [18]: 7.23%
viability, T/C [19]: 22.5%
viability, T/C [20]: 18.8%
viability, T/C [21]: 18%
viability, T/C [22]: 16.2%
viability, T/C [23]: 9.36%
viability, T/C [24]: 8.84%
viability, T/C [25]: 19.7%
viability, T/C [26]: 19.7%
viability, T/C [27]: 17.2%
viability, T/C [28]: 15.3%
viability, T/C [29]: 10.7%
viability, T/C [30]: 9.1%
viability, T/C [31]: 21.8%
viability, T/C [32]: 18%
viability, T/C [33]: 16.4%
viability, T/C [34]: 14.2%
viability, T/C [35]: 10.8%
viability, T/C [36]: 7.87%
